Results taken from US20070134353A1, “PHYTOESTROGENIC COMPOSITION COMPRISING AN EXTRACT OF CHINESE LICORICE ROOT, ISOLIQUIRITIN OR LIQUIRITIN” (priority 2004, published 2007).
“Also recorded” adds a separate entry of the source.

Legend:
[1] = test system: bisphenol-A (BPA) activity in MCF-7 cells; test: Inhibitory effect on bisphenol-A (BPA) activity in MCF-7 cells; assay type: cell-based; details: summary statement, no concentration given
Experimental: 5×10^4 cells/ml of MCF-7 cells (ATCC HTB-22) were placed in a 6-well culture plate and allowed to be attached for 24 hours. Phenol red-free D-medium supplemented with 5% fetal bovine serum (FBS) and 3 Ml/l PSN antibiotic mixture (Gibco, USA) was added thereto, followed by incubation in an incubator kept at 5% CO2, 95% air, 100% humidity, 37° C. for 24 hours. After incubation for 24 hours, the medium was removed and the cultured cells were incubated in phenol red-free D-medium supplemented with 5% DCC-FBS (dextran-coated charcoal-stripped FBS; […] During the incubation, the test media were changed once. After 72 hours, the cells were treated with 1 Ml of 0.1 N NaOH (Sigma Co.) and collected to examine DNA content with a spectrophotometer at OD 260 nm. Additionally, in order to examine if the Chinese licorice root extract can suppress activity of bisphenol-A (BPA), which is an endocrine disruptor having tumor-inducing activity, in the foregoing experiment, BPA was used instead of the Chinese licorice root extract or the Chinese licorice root extract and BPA were used simultaneously. […]

[2] = molecular target: T1, human estrogen receptor (hER) (Homo sapiens, UniProt P03372); test: Yeast assay, yeast estrogen response (YER), β-gal reporter; assay type: cell-based; details: for estrogenicity: summary statement, no concentration given
T1 construct: expressed in transfected cells; host or cells: Saccharomyces cerevisiae ER+LYS 8127 (from Dr. Donald P. McDonnell, Duke University)
T1 sequence (P03372 1-595): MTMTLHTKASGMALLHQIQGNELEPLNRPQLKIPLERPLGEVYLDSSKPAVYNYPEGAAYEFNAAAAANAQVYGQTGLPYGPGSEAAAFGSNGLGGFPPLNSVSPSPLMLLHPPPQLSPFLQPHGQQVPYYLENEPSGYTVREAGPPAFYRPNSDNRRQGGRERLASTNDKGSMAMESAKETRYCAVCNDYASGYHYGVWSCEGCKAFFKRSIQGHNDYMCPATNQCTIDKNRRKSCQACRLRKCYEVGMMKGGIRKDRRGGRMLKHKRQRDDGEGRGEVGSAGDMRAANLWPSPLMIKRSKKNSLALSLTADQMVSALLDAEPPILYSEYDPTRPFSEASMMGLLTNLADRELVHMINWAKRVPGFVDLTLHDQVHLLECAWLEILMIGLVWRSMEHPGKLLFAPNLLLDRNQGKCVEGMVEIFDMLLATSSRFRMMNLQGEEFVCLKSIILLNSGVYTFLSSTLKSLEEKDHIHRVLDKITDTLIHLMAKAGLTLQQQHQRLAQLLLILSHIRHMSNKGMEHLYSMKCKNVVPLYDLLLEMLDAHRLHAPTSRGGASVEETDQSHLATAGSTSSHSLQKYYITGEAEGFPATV
Experimental: Saccharomyces cerevisiae ER+[…], supplied by Dr. Donald P. […] The cultured yeasts were diluted in a medium to a proper concentration and 500 μM of CuSO4 (Sigma, USA) was added thereto. The diluted yeasts were then aliquoted into a 50 Ml tube at a proper level. […] Control group was treated with dimethyl sulfoxide (Sigma, USA). […] The experimental groups and control groups treated with the respective materials were then cultured for 18 hours in a shaking incubator (200 rpm). […] To each well, 100 μl of a Z buffer containing 2 mg/Ml o-nitrophenyl -β-D-galactopyranoside (Sigma, USA), 0.1% lauryl sulfate (Sigma, USA), 50 mM β-mercaptoethanol (BDH chemical LTD, England) and 200 U/Ml oxalyticase (Enzogenetics, USA) was added. After 20 minutes, the coloration was examined using a microplate reader at a wavelength of 420 nm. All the data were analyzed by ANOVA using the statistical program SAS and Dunnett's t-test was performed at significance level P<0.05.

[3] = test system: MCF-7 breast cancer cells; test: Inhibitory effect on MCF-7 cell line proliferation (DNA content, OD 260 nm); assay type: cell-based; details: for inhibition of proliferation of MCF-7 breast cancer cell line: 100 μg/ml; for inhibition of proliferation of cancer cells including breast cancer cells: summary statement, no concentration given
Experimental: 5×10^4 cells/ml of MCF-7 cells (ATCC HTB-22) were placed in a 6-well culture plate and allowed to be attached for 24 hours. Phenol red-free D-medium supplemented with 5% fetal bovine serum (FBS) and 3 Ml/l PSN antibiotic mixture (Gibco, USA) was added thereto, followed by incubation in an incubator kept at 5% CO2, 95% air, 100% humidity, 37° C. for 24 hours. After incubation for 24 hours, the medium was removed and the cultured cells were incubated in phenol red-free D-medium supplemented with 5% DCC-FBS (dextran-coated charcoal-stripped FBS; […] During the incubation, the test media were changed once. After 72 hours, the cells were treated with 1 Ml of 0.1 N NaOH (Sigma Co.) and collected to examine DNA content with a spectrophotometer at OD 260 nm.

androgen receptor (hAR) = molecular target: T2, androgen receptor (hAR) (Homo sapiens, UniProt P10275); test: Yeast assay, yeast androgen response (YAR), β-gal reporter; assay type: cell-based; details: summary statement, no concentration given
T2 construct: expressed in transfected cells; host or cells: recombinant Saccharomyces cerevisiae (from Dr. Donald P. McDonnell, Duke University)
T2 sequence (P10275 1-920): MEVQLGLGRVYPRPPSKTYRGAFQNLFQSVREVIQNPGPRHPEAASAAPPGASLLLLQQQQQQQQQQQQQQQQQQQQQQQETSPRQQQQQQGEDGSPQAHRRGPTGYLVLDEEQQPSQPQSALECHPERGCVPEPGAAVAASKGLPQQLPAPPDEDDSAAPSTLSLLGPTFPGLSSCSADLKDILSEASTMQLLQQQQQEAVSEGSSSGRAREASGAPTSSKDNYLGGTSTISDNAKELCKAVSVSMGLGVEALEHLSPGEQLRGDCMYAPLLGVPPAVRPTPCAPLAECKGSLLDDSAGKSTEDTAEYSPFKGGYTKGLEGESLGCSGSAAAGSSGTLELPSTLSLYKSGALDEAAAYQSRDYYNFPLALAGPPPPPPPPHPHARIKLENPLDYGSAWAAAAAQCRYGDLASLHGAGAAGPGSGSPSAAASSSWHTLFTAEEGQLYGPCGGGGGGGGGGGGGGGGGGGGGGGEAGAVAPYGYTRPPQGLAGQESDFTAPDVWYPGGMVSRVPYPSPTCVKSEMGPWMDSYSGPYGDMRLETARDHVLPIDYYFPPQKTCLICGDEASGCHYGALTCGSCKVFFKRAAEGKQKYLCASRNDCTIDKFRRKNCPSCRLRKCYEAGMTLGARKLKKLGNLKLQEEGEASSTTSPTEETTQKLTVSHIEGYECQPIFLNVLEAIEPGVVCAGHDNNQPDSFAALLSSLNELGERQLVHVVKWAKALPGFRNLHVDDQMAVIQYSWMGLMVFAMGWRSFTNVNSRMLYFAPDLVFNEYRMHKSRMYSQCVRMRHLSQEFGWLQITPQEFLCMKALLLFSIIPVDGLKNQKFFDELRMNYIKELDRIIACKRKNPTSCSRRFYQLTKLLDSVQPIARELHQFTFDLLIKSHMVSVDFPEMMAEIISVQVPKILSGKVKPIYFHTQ

[4] = test system: uterus and vagina of immature Sprague-Dawley rats; test: Immature uterotrophic assay; assay type: in vivo; details: BPA 40 mg/ml/100 g s.c. 3 days, compared to non-treated control group
Experimental: 40 immature Sprague-Dawley rats, aged 18 days, were kept in a breeding environment of a temperature of 22±3° C., a relative humidity of 50±10%, a ventilation frequency of 10 to 12 times/hr, light time of 12 hours, an illumination intensity of 150 to 200 lux while being supplied with AIN-76A diet (per 1 kg, thiamine HCI 0.6 g, riboflavin 0.6 g, pyridoxine HCI 0.7 g, […] 3.0 g, calcium pantothenate 1.6 g, folic acid 0.2 g, biotin 0.02 g, Vitamin B12 (0.1%) 1.0 g, Vitamin A palmitate (500,000 IU/g) 0.8 g, Vitamin D3 (400,000 IU/g) 0.25 g, Vitamin E acetate (500 IU/g) 10.0 g, menadion sodium bisulfite 0.08 g, fine powdery sucrose 981.15 g). Each rat was subcutaneously administered once daily with bisphenol A (40 mg/ml/100 g body weight) and the Chinese licorice root EtOH extract (10 mg or 50 mg/ml/100 g body weight) suspended in corn oil for 3 days. 24 hours after the last administration day, the animals were killed by cervical dislocation. […] In particular, the height of the luminal epithelium of the uterus lumen was measured and the luminal epithelium of the vagina was carefully observed. For statistical analysis of data with respect to body weight of test animals and the like which had been measured in the experiment, one-way ANOVA was performed to inspect significance between groups at p=0.05 level. […]

Row | Compound | suppression of the activity of bisphenol-A [1] | estrogenicity [2] | inhibition of proliferation of MCF-7 breast cancer cell line [3] | inhibition of proliferation of cancer cells including breast cancer cells [3] | androgenicity (androgen receptor (hAR)) | effect on proliferation of MCF-7 cells ([3]; 16 μg/ml, pretest) | thickness of uterine epithelial cells ([4]; FIG. 14) | thickness of vagina epithelial cells ([4]; FIG. 15) | estrogenicity (estrogen response, ER) ([2]; 10 μg/ml and 100 μg/ml, compared with positive control 10^−9 M estradiol, FIG. 2b) | concentration showing the highest estrogenicity ([2]; tested at 10 μg/ml and 100 μg/ml, FIG. 2b) | inhibitory effect on proliferation of breast cancer cells (MCF-7) ([3]; 300 μg/ml, FIG. 5)
1 | Liquiritin | suppress the activity of bisphenol-A | show estrogenicity | inhibited proliferation | inhibit proliferation of cancer cells | do not show androgenicity | – | – | – | – | – | –
2 | CC(C)(c1ccc(O)cc1)c1ccc(O)cc1 [BPA, bisphenol-A] | – | – | – | – | – | showed the highest effect on proliferation | increased | increased | – | – | –
3 | O=C(/C=C/c1ccc(O[C@@H]2O[C@H](CO)[C@@H](O)[C@H](O)[C@H]2O)cc1)c1ccc(O)cc1O [isoliquiritin, Isoliquiritin] | suppress the activity of bisphenol-A | show estrogenicity | inhibited proliferation; also recorded: no significant proliferation of breast cancer cells was observed | inhibit proliferation of cancer cells | do not show androgenicity | – | – | – | higher than that of the positive control estradiol | 10 µg/mL | excellent inhibitory effect
